# Measured values from PubChem BioAssay (NCI).
#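 In this assay, cells in 96-well plates receive the compound at five concentrations for 48 hours. Endpoints are linearly interpolated between the surrounding concentrations. GI50 is the concentration that inhibits growth by half. The concentration for full growth arrest is given as TGI.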
# Tests used:
# Test in all cases: NCI tumour cell line growth inhibition, 48 h
# OVCAR-5 ovarian = test system: OVCAR-5 ovarian
# OVCAR-3 ovarian = test system: OVCAR-3 ovarian
# SNB-19 CNS = test system: SNB-19 CNS
# M14 melanoma = test system: M14 melanoma
# SK-MEL-5 melanoma = test system: SK-MEL-5 melanoma
# UACC-62 melanoma = test system: UACC-62 melanoma
# IGROV1 ovarian = test system: IGROV1 ovarian
# NCI-H23 lung = test system: NCI-H23 lung
# BT-549 breast = test system: BT-549 breast
# ACHN renal = test system: ACHN renal
# MDA-MB-468 breast = test system: MDA-MB-468 breast
# A549 NSCLC = test system: A549 NSCLC
# SN12C renal = test system: SN12C renal
# NCI-H522 lung = test system: NCI-H522 lung
# HT29 colon = test system: HT29 colon
# SK-MEL-28 melanoma = test system: SK-MEL-28 melanoma
# SF-268 CNS = test system: SF-268 CNS
# PC-3 prostate = test system: PC-3 prostate
# HOP-62 NSCLC = test system: HOP-62 NSCLC
# NCI-H460 lung = test system: NCI-H460 lung
# UO-31 renal = test system: UO-31 renal
# COLO 205 colon = test system: COLO 205 colon
# HS 578T breast = test system: HS 578T breast
# OVCAR-8 ovarian = test system: OVCAR-8 ovarian
# SR leukemia = test system: SR leukemia
# HCT-15 colon = test system: HCT-15 colon
# LOX IMVI melanoma = test system: LOX IMVI melanoma
# RPMI-8226 leukemia = test system: RPMI-8226 leukemia
# MDA-MB-231 breast = test system: MDA-MB-231 breast
# TK-10 renal = test system: TK-10 renal
# SNB-75 CNS = test system: SNB-75 CNS
# SW-620 colon = test system: SW-620 colon
# HCC-2998 colon = test system: HCC-2998 colon
# HL-60(TB) leukemia = test system: HL-60(TB) leukemia
# NCI-H226 lung = test system: NCI-H226 lung
# DU-145 prostate = test system: DU-145 prostate
# SF-295 CNS = test system: SF-295 CNS
# MDA-MB-435 = test system: MDA-MB-435
# SF-539 CNS = test system: SF-539 CNS
# EKVX NSCLC = test system: EKVX NSCLC
# T-47D breast = test system: T-47D breast
# U251 CNS = test system: U251 CNS
# NCI/ADR-RES ovarian = test system: NCI/ADR-RES ovarian
# CAKI-1 renal = test system: CAKI-1 renal
# K-562 leukemia = test system: K-562 leukemia
# MOLT-4 leukemia = test system: MOLT-4 leukemia
# MCF7 breast = test system: MCF7 breast
# MALME-3M melanoma = test system: MALME-3M melanoma
# KM12 colon = test system: KM12 colon
# CCRF-CEM leukemia = test system: CCRF-CEM leukemia
# SK-OV-3 ovarian = test system: SK-OV-3 ovarian
# HCT-116 colon = test system: HCT-116 colon
# HOP-92 NSCLC = test system: HOP-92 NSCLC
# SK-MEL-2 melanoma = test system: SK-MEL-2 melanoma
# OVCAR-4 ovarian = test system: OVCAR-4 ovarian
# A498 renal = test system: A498 renal
# RXF 393 renal = test system: RXF 393 renal
# 786-0 renal = test system: 786-0 renal
# UACC-257 melanoma = test system: UACC-257 melanoma
compound,measurement,setting,value
O=C(c1ccc(Cl)cc1)C1[C@H](c2ccccc2Cl)[C@@H](c2ccccc2)NC12C(=O)Nc1ccc(Br)cc12 (stereo partly drawn),GI50,OVCAR-5 ovarian,14.9 µM
same,TGI,OVCAR-5 ovarian,29.6 µM
same,GI50,OVCAR-3 ovarian,15.6 µM
same,TGI,OVCAR-3 ovarian,32.4 µM
same,GI50,SNB-19 CNS,24.8 µM
same,TGI,SNB-19 CNS,78.3 µM
same,GI50,M14 melanoma,15.3 µM
same,TGI,M14 melanoma,29.3 µM
same,GI50,SK-MEL-5 melanoma,16.1 µM
same,TGI,SK-MEL-5 melanoma,29.8 µM
same,GI50,UACC-62 melanoma,13.7 µM
same,TGI,UACC-62 melanoma,27 µM
same,GI50,IGROV1 ovarian,17.1 µM
same,TGI,IGROV1 ovarian,41 µM
same,GI50,NCI-H23 lung,14.9 µM
same,TGI,NCI-H23 lung,31.1 µM
same,GI50,BT-549 breast,14.5 µM
same,TGI,BT-549 breast,28 µM
same,GI50,ACHN renal,22.8 µM
same,TGI,ACHN renal,69.5 µM
same,GI50,MDA-MB-468 breast,11 µM
same,TGI,MDA-MB-468 breast,26.9 µM
same,GI50,A549 NSCLC,17.5 µM
same,TGI,A549 NSCLC,42.3 µM
same,GI50,SN12C renal,15 µM
same,TGI,SN12C renal,28.2 µM
same,GI50,NCI-H522 lung,14.1 µM
same,TGI,NCI-H522 lung,29.9 µM
same,GI50,HT29 colon,17.9 µM
same,TGI,HT29 colon,37 µM
same,GI50,SK-MEL-28 melanoma,16 µM
same,TGI,SK-MEL-28 melanoma,29.7 µM
same,GI50,SF-268 CNS,16.6 µM
same,TGI,SF-268 CNS,38.7 µM
same,GI50,PC-3 prostate,15.7 µM
same,TGI,PC-3 prostate,37.5 µM
same,GI50,HOP-62 NSCLC,15 µM
same,TGI,HOP-62 NSCLC,30 µM
same,GI50,NCI-H460 lung,17.7 µM
same,TGI,NCI-H460 lung,35 µM
same,GI50,UO-31 renal,13.4 µM
same,TGI,UO-31 renal,30.6 µM
same,GI50,COLO 205 colon,17.4 µM
same,TGI,COLO 205 colon,31.6 µM
same,GI50,HS 578T breast,16.9 µM
same,TGI,HS 578T breast,42.7 µM
same,GI50,OVCAR-8 ovarian,17.7 µM
same,TGI,OVCAR-8 ovarian,36.6 µM
same,GI50,SR leukemia,16.5 µM
same,TGI,SR leukemia,41.7 µM
same,GI50,HCT-15 colon,15.8 µM
same,TGI,HCT-15 colon,30.5 µM
same,GI50,LOX IMVI melanoma,15.2 µM
same,TGI,LOX IMVI melanoma,28.5 µM
same,GI50,RPMI-8226 leukemia,26 µM
same,TGI,RPMI-8226 leukemia,84.5 µM
same,GI50,MDA-MB-231 breast,15.6 µM
same,TGI,MDA-MB-231 breast,29.4 µM
same,GI50,TK-10 renal,18.3 µM
same,TGI,TK-10 renal,50.6 µM
same,GI50,SNB-75 CNS,10.5 µM
same,TGI,SNB-75 CNS,35 µM
same,GI50,SW-620 colon,16.1 µM
same,TGI,SW-620 colon,31.4 µM
same,GI50,HCC-2998 colon,15.5 µM
same,TGI,HCC-2998 colon,31.1 µM
same,GI50,HL-60(TB) leukemia,20.8 µM
same,TGI,HL-60(TB) leukemia,49.1 µM
same,GI50,NCI-H226 lung,14.4 µM
same,TGI,NCI-H226 lung,29.3 µM
same,GI50,DU-145 prostate,19.2 µM
same,TGI,DU-145 prostate,40.5 µM
same,GI50,SF-295 CNS,16.5 µM
same,TGI,SF-295 CNS,32.4 µM
same,GI50,MDA-MB-435,15.2 µM
same,TGI,MDA-MB-435,29.6 µM
same,GI50,SF-539 CNS,16.5 µM
same,TGI,SF-539 CNS,31.8 µM
same,GI50,EKVX NSCLC,16.6 µM
same,TGI,EKVX NSCLC,44 µM
same,GI50,T-47D breast,15.2 µM
same,TGI,T-47D breast,30.3 µM
same,GI50,U251 CNS,16.1 µM
same,TGI,U251 CNS,29.9 µM
same,GI50,NCI/ADR-RES ovarian,15.5 µM
same,TGI,NCI/ADR-RES ovarian,30.7 µM
same,GI50,CAKI-1 renal,14.8 µM
same,TGI,CAKI-1 renal,33.9 µM
same,GI50,K-562 leukemia,26.8 µM
same,TGI,K-562 leukemia,88.9 µM
same,GI50,MOLT-4 leukemia,21.2 µM
same,TGI,MOLT-4 leukemia,61.7 µM
same,GI50,MCF7 breast,15.7 µM
same,TGI,MCF7 breast,37.3 µM
same,GI50,MALME-3M melanoma,15.5 µM
same,TGI,MALME-3M melanoma,29 µM
same,GI50,KM12 colon,19.7 µM
same,TGI,KM12 colon,44.7 µM
same,GI50,CCRF-CEM leukemia,24.4 µM
same,TGI,CCRF-CEM leukemia,68.2 µM
same,GI50,SK-OV-3 ovarian,24.3 µM
same,TGI,SK-OV-3 ovarian,70.2 µM
same,GI50,HCT-116 colon,14.4 µM
same,TGI,HCT-116 colon,27.6 µM
same,GI50,HOP-92 NSCLC,15.6 µM
same,TGI,HOP-92 NSCLC,31 µM
same,GI50,SK-MEL-2 melanoma,15.9 µM
same,TGI,SK-MEL-2 melanoma,31.6 µM
same,GI50,OVCAR-4 ovarian,18.3 µM
same,TGI,OVCAR-4 ovarian,49.7 µM
same,GI50,A498 renal,19.9 µM
same,TGI,A498 renal,46.7 µM
same,GI50,RXF 393 renal,14.1 µM
same,TGI,RXF 393 renal,28.2 µM
same,GI50,786-0 renal,16.6 µM
same,TGI,786-0 renal,34.4 µM
same,GI50,UACC-257 melanoma,17.6 µM
same,TGI,UACC-257 melanoma,37.8 µM
